{"source": "patent US20050038103A1", "about": "“Uses of dorzolamide” (priority 2003, published 2005)", "key": {"[1]": {"assay": "Visual fields in a patient with retinitis pigmentosa", "details": "for improvement in visual field: gtts (i) ou bid"}, "[2]": {"assay": "Visual acuity (Snellen's chart) in patients with age-related macular degeneration", "details": "AMD patients"}, "[3]": {"details": "Sponsel et al., 1997; Harris et al., 1999; cited from earlier work"}, "[4]": {"assay": "Night vision of patients being treated for glaucoma", "assay_type": "in vivo, human"}, "[5]": {"details": "cited from earlier work"}}}
{"compound": "CCN[C@H]1C[C@H](C)S(=O)(=O)c2sc(S(N)(=O)=O)cc21", "note": "[dorzolamide]", "values": [{"measurement": "safety", "setting": "[1]; gtts (i) bid", "result": "very safe"}, {"measurement": "improvement in visual field", "setting": "[1]; five weeks", "result": "marked improvement in visual field in the left eye"}, {"measurement": "improvement in visual field", "setting": "[1]; nine weeks", "result": "still more marked improvement in both eyes"}, {"measurement": "safety", "setting": "[2]; gtts (i) bid", "result": "very safe"}, {"measurement": "improvement in visual acuity (one more line on Snellen's chart)", "setting": "[2]; gtts (i) bid in one eye, one month", "result": "Most patients demonstrated objective (and subjective) improvement in visual acuity in one month"}, {"measurement": "contrast sensitivity", "setting": "[3]", "result": "enhance contrast sensitivity"}, {"measurement": "perimetric light sensitivity", "setting": "[3]", "result": "increase perimetric light sensitivity"}, {"measurement": "night vision", "setting": "[4]", "result": "improved the night vision"}, {"measurement": "capillary dye transit in macula and optic nerve head", "setting": "[5]; Harris et al., 1996", "result": "enhance capillary dye transit in macula and optic nerve head"}, {"measurement": "retinal arteriovenous passage", "setting": "[5]; Harris et al., 1999, 1996, 2001", "result": "accelerate retinal arteriovenous passage"}, {"measurement": "increase of ocular pulse amplitude", "setting": "[5]; Schmidt et al., 1998", "result": "18-19%"}]}
